The supplement of paper PMC10307832

What was measured:
Assay in all cases: relative viability (nuclei count vs DMSO), 5 days (fraction); higher = more cells survive
Seliciclib + Lapatinib = compound: CC[C@H](CO)Nc1nc(NCc2ccccc2)c2ncn(C(C)C)c2n1 [Seliciclib] + CS(=O)(=O)CCNCc1ccc(-c2ccc3ncnc(Nc4ccc(OCc5cccc(F)c5)c(Cl)c4)c3c2)o1 [Lapatinib] (partner 2 µM)
Method in brief: (§1)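 Lung cancer cell lines were seeded in 1536-well plates and dosed by pin tool the next day, with either a single drug or a fixed anchor-drug dose combined with five library-drug doses (not always all listed) spaced in √10 steps. Five days later, one step fixed the cells and stained their nuclei (final 0.05% Triton X-100, 1% formaldehyde, 1 ug/ml Hoechst), and nuclei were counted on 4× images. Relative viability is the nuclei count in treated wells divided by the count in vehicle wells, and each value is the median of duplicate plates.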

Seliciclib + Crizotinib = compound: CC[C@H](CO)Nc1nc(NCc2ccccc2)c2ncn(C(C)C)c2n1 [Seliciclib] + C[C@@H](Oc1cc(-c2cnn(C3CCNCC3)c2)cnc1N)c1c(Cl)ccc(F)c1Cl [Crizotinib] (partner 1 µM)
Method in brief: as §1

Seliciclib + Dasatinib = compound: CC[C@H](CO)Nc1nc(NCc2ccccc2)c2ncn(C(C)C)c2n1 [Seliciclib] + Cc1nc(Nc2ncc(C(=O)Nc3c(C)cccc3Cl)s2)cc(N2CCN(CCO)CC2)n1 [Dasatinib] (partner 0.075 µM)
Method in brief: as §1

Seliciclib + Pemetrexed = compound: CC[C@H](CO)Nc1nc(NCc2ccccc2)c2ncn(C(C)C)c2n1 [Seliciclib] + Nc1nc2[nH]cc(CCc3ccc(C(=O)N[C@@H](CCC(=O)O)C(=O)O)cc3)c2c(=O)[nH]1 [Pemetrexed] (partner 0.2 µM)
Method in brief: as §1

Cell Line | relative viability (Seliciclib + Lapatinib; first compound 0.08 µM) | relative viability (Seliciclib + Lapatinib; first compound 0.253 µM) | relative viability (Seliciclib + Lapatinib; first compound 0.8 µM) | relative viability (Seliciclib + Lapatinib; first compound 2.53 µM) | relative viability (Seliciclib + Lapatinib; first compound 8 µM) | relative viability (Seliciclib + Crizotinib; first compound 0.08 µM) | relative viability (Seliciclib + Crizotinib; first compound 0.8 µM) | relative viability (Seliciclib + Crizotinib; first compound 2.53 µM) | relative viability (Seliciclib + Crizotinib; first compound 8 µM) | relative viability (Seliciclib + Dasatinib; first compound 0.08 µM) | relative viability (Seliciclib + Dasatinib; first compound 0.253 µM) | relative viability (Seliciclib + Dasatinib; first compound 0.8 µM) | relative viability (Seliciclib + Dasatinib; first compound 2.53 µM) | relative viability (Seliciclib + Dasatinib; first compound 8 µM) | relative viability (Seliciclib + Pemetrexed; first compound 0.08 µM) | relative viability (Seliciclib + Pemetrexed; first compound 0.253 µM) | relative viability (Seliciclib + Pemetrexed; first compound 0.8 µM) | relative viability (Seliciclib + Pemetrexed; first compound 2.53 µM) | relative viability (Seliciclib + Pemetrexed; first compound 8 µM) | relative viability (Seliciclib + Crizotinib; first compound 0.253 µM)
CAL-12T | 0.619 | 0.793 | 0.551 | 0.67 | 0.276 | 0.624 | 0.846 | 0.687 | 0.461 | 0.501 | 0.738 | 0.362 | 0.23 | 0.284 | 1.16 | 0.949 | 1.2 | 1.06 | 1.01 | 
COR-L23 | 0.921 | 1.14 | 0.929 | 1.12 | 0.87 | 0.61 | 0.693 | 0.671 | 0.519 | 0.457 | 0.644 | 0.484 | 0.342 | 0.383 | 0.209 | 0.192 | 0.195 | 0.198 | 0.212 | 0.806
NCI-H1755 | 1.02 | 1.02 | 1.02 | 0.963 | 1.03 | 0.84 | 0.84 | 0.973 | 0.854 | 0.423 | 0.404 | 0.429 | 0.26 | 0.404 | 0.385 | 0.386 | 0.431 | 0.419 | 0.467 | 0.85
NCI-H1437 | 0.824 | 0.949 | 0.882 | 0.777 | 0.618 | 0.861 | 0.951 | 0.97 | 0.834 | 0.465 | 0.438 | 0.323 | 0.233 | 0.335 | 0.32 | 0.358 | 0.333 | 0.315 | 0.306 | 0.916
NCI-H2085 | 0.739 | 0.793 | 0.667 | 0.635 | 0.497 | 0.866 | 0.9 | 0.862 | 0.706 | 0.219 | 0.274 | 0.256 | 0.294 | 0.251 | 0.979 | 1.01 | 0.856 | 0.935 | 0.727 | 0.767
H3255 | 0.265 | 0.273 | 0.256 | 0.174 | 0.242 | 0.787 | 1.01 | 0.965 | 0.727 | 0.341 | 0.447 | 0.335 | 0.279 | 0.324 | 0.555 | 0.624 | 0.639 | 0.471 | 0.534 | 0.892
NCI-H650 | 0.953 | 1.12 | 1.1 |  | 0.765 | 0.65 | 0.84 |  | 0.543 | 0.447 | 0.387 | 0.596 | 0.262 | 0.39 | 1.06 | 0.905 | 1.07 | 0.73 | 0.825 | 0.713
LOU-NH91 | 0.743 | 0.682 | 0.729 | 0.6 | 0.681 | 0.721 | 0.678 | 0.673 | 0.685 | 0.493 | 0.515 | 0.535 | 0.413 | 0.427 |  | 0.394 | 0.367 | 0.44 | 0.393 | 0.743
NCI-H1650 | 0.769 | 0.889 | 0.725 | 0.621 | 0.347 | 0.885 | 0.924 | 0.847 | 0.607 | 0.3 | 0.344 | 0.304 | 0.247 | 0.285 | 0.429 | 0.346 | 0.36 | 0.427 | 0.399 | 1.12
NCI-H3122 | 0.938 | 1.08 | 0.91 | 1.04 | 0.949 | 0.294 | 0.311 | 0.231 | 0.301 | 0.719 |  | 0.787 | 0.679 | 0.812 | 0.207 | 0.211 | 0.177 | 0.205 | 0.228 | 0.258
PC-3 [JPC-3] | 0.455 | 0.52 | 0.418 | 0.421 | 0.445 | 0.998 | 0.95 | 0.921 | 0.861 | 1.04 | 1 | 0.982 | 0.936 | 0.946 | 1.11 | 1.17 | 1.08 | 0.995 | 0.968 | 0.994
NCI-H1651 | 0.807 | 0.875 | 0.883 | 0.864 | 0.702 | 0.873 | 0.831 | 0.814 | 0.82 | 0.403 | 0.399 | 0.536 | 0.302 | 0.382 | 0.518 | 0.591 | 0.61 | 0.388 | 0.561 | 0.861
NCI-H2087 | 1.13 | 1.14 | 1.02 | 0.749 | 0.965 | 0.909 | 0.956 | 0.828 | 0.846 | 0.874 | 1.07 | 0.898 | 0.704 | 0.754 | 0.635 | 0.591 | 0.673 | 0.652 | 0.639 | 0.833
